According to patent US6727287B2, “Toluene sulfonamide-containing anti-tumor composition and method of use thereof” (PTS International, Inc., priority 2001, dated 2004):

Tested on: normal (i.e., non-neoplastic) cells
Assay: Exposure of normal (non-neoplastic) cells to para-toluene sulfonamide
Details: normal (non-neoplastic) cells exposed to the compound

## Cc1ccc(S(N)(=O)=O)cc1 [para-toluene sulfonamide]
  histopathological changes in normal cells: almost no histopathological changes
